Some test systems named below: HCT-15; U-251; SN12C; NCI-H226; A498; HOP-92; M14; IGROV-1; TK-10; CCRF-CEM; NCI-H460; HOP-62; HT-29; SF-295; RPMI-8226; SK-MEL-5; UO-31; OVCAR-5; RXF 393; COLO 205.
Common to all, as to experiment: growth of human tumour cells (NCI), 48 h

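These data come from cells grown in 96-well plates and exposed to compound for 48 hours at five concentrations. The concentration for 50% growth inhibition is given as GI50.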 Activity calls are given as the source filed them. Rule as the data show it: active = GI50 up to about 1.1 µM and inactive = higher.

With `O=C(O)C(SC(=S)c1ccc(C(=S)SC(C(=O)O)c2ccccc2)cc1)c1ccccc1` (stereo not given), the GI50 with HCT-15 is 42.2 µM; with U-251, > 100 µM (inactive); in the assay on SN12C, > 100 µM (inactive); in the assay with NCI-H226 it was 55.5 µM (inactive); in the assay on A498, 69.8 µM (inactive); in the assay on HOP-92, > 100 µM (inactive). In addition, the GI50 in the assay with M14, with IGROV-1, in the assay with TK-10, in the assay on CCRF-CEM, in the assay on NCI-H460 and with HOP-62 was > 100 µM (inactive) throughout. The GI50 was 67.1 µM (inactive) in the assay on HT-29; > 100 µM (inactive) in the assay with SF-295; 42.8 µM (inactive) with RPMI-8226; > 100 µM (inactive) in the assay on SK-MEL-5; 92.7 µM (inactive) with UO-31; > 100 µM (inactive) in the assay on OVCAR-5. For the same compound, the GI50 with RXF 393 was > 100 µM (inactive).
`CCN1CCC(O)(c2ccc(O)cc2)C(C(=O)c2ccc(O)cc2)C1` (stereo not given): the GI50 is 17.5 µM with HCT-15; > 100 µM (inactive) in the assay on U-251; 22.3 µM (inactive) with SN12C; 29.3 µM (inactive) in the assay on NCI-H226; > 10 µM (inactive) in the assay with A498; 19.7 µM (inactive) in the assay with HOP-92. Further, the GI50 with M14 is 19.5 µM (inactive); in the assay on IGROV-1, 21.6 µM (inactive); in the assay with TK-10 it was 17.3 µM (inactive); in the assay with CCRF-CEM it was 11.5 µM (inactive); in the assay on NCI-H460 it was > 100 µM (inactive); with HOP-62, > 100 µM (inactive). Further, the GI50 was 25.8 µM (inactive) with HT-29; > 100 µM (inactive) in the assay on SF-295; 3.21 µM (inactive) with RPMI-8226; 10.8 µM (inactive) with SK-MEL-5; 21.6 µM (inactive) with UO-31; 4.45 µM (inactive) in the assay on COLO 205. The GI50 was 21.1 µM (inactive) in the assay on OVCAR-5 and 16.6 µM (inactive) with RXF 393.
Regarding `CCOC(=O)c1c(Cl)nc2ccccc2c1N=[N+]=[N-]`, the GI50 with HCT-15 was 18.6 µM; in the assay with U-251, 24.5 µM (inactive); in the assay with SN12C it was 16.8 µM (inactive); in the assay with NCI-H226, 32.1 µM (inactive); in the assay on A498, > 100 µM (inactive); with HOP-92, 24.7 µM (inactive). In addition, the GI50 in the assay on M14 was 19.1 µM (inactive); in the assay with IGROV-1 it was 22 µM (inactive); in the assay on TK-10, 31.9 µM (inactive); in the assay with CCRF-CEM, 41 µM (inactive); with NCI-H460, 23.7 µM (inactive); with HOP-62, 49.3 µM (inactive). Moreover, the GI50 was 19.6 µM (inactive) in the assay with HT-29; 23.9 µM (inactive) in the assay with SF-295; 43.5 µM (inactive) in the assay on RPMI-8226; 44.5 µM (inactive) in the assay on SK-MEL-5; 18.7 µM (inactive) in the assay with UO-31; 21.5 µM (inactive) with COLO 205. Also, the GI50 with OVCAR-5 was 19.3 µM (inactive); with RXF 393, 44.6 µM (inactive).
On to `c1ccc(COc2cccc3ccc[n+](Cc4ccccc4)c23)cc1`, for which the GI50 with HCT-15 is 27.5 µM; in the assay on U-251, 4.01 µM (inactive); in the assay with NCI-H226 it was 3.31 µM (inactive); in the assay on A498 it was 16.6 µM (inactive); in the assay on HOP-92 it was 3.41 µM (inactive); with M14, 9.38 µM (inactive). The GI50 in the assay on IGROV-1 was 3.03 µM (inactive); in the assay with TK-10, 12.1 µM (inactive); in the assay with CCRF-CEM, 6.04 µM (inactive); in the assay with NCI-H460, 8.93 µM (inactive); with HOP-62, 12 µM (inactive); in the assay with HT-29, 5.01 µM (inactive). The GI50 in the assay with SF-295 was 4.26 µM (inactive); in the assay on RPMI-8226 it was 2.77 µM (inactive); with UO-31, 25.8 µM (inactive); in the assay on COLO 205, 6.44 µM (inactive); with OVCAR-5 it was 1.92 µM (inactive); with RXF 393 it was 8.75 µM (inactive).
Consider `N#CC1(C#N)C(c2ccccc2)NC23CCCCC2C1(C#N)C(=O)N3` (stereo not given), for which the GI50 with HCT-15 is greater than 100 µM; with U-251, > 100 µM (inactive); in the assay with SN12C, > 100 µM (inactive); in the assay with NCI-H226 it was > 100 µM (inactive); with A498 it was > 100 µM (inactive); in the assay with HOP-92, > 100 µM (inactive). Besides, the GI50 was > 100 µM (inactive) with M14; > 100 µM (inactive) in the assay with IGROV-1; 51.6 µM (inactive) in the assay on CCRF-CEM; > 100 µM (inactive) in the assay on NCI-H460; > 100 µM (inactive) in the assay on HOP-62; > 100 µM (inactive) with HT-29. The GI50 in the assay with SF-295, in the assay with RPMI-8226, with UO-31, in the assay with COLO 205, in the assay with OVCAR-5 and in the assay on RXF 393 was > 100 µM (inactive) each time.
`Cc1c2ccncc2c(C)c2c1[nH]c1ccc(OCCN(C)C)cc12`: the GI50 in the assay on HCT-15 was 0.123 µM; with U-251, 0.209 µM (active); in the assay with SN12C it was 0.309 µM (active); with NCI-H226, 0.365 µM (active); in the assay with A498, 1.19 µM (inactive); with HOP-92 it was 0.583 µM (active). The GI50 in the assay on IGROV-1 is 0.388 µM (active); in the assay with CCRF-CEM, 0.024 µM (active); in the assay on NCI-H460 it was 0.0308 µM (active); with HOP-62, 0.671 µM (active); in the assay on HT-29, 0.171 µM (active); with SF-295, 0.125 µM (active). Besides, the GI50 with RPMI-8226 was 0.0638 µM (active); with SK-MEL-5, 1.35 µM (inactive); in the assay with UO-31, 0.641 µM (active); in the assay on COLO 205, 0.357 µM (active); in the assay on OVCAR-5, 0.433 µM (active); in the assay with RXF 393, 0.265 µM (active).
For the compound `C[Si](C)(N[Si](C)(C)OCCc1ccccc1)OCCc1ccccc1`, the GI50 is greater than 100 µM with HCT-15; > 100 µM (inactive) in the assay with U-251; > 100 µM (inactive) in the assay with SN12C; > 100 µM (inactive) in the assay on NCI-H226; > 100 µM (inactive) in the assay on A498; > 100 µM (inactive) with HOP-92. For the same compound, the GI50 with M14, in the assay on IGROV-1, with TK-10, with CCRF-CEM, in the assay with NCI-H460 and in the assay on HOP-62 was > 100 µM (inactive) throughout. The GI50 in the assay with HT-29, in the assay on SF-295, in the assay on RPMI-8226, with SK-MEL-5, in the assay with UO-31 and with OVCAR-5 was > 100 µM (inactive) in each case. Besides, the GI50 in the assay with RXF 393 was > 100 µM (inactive).
As to `CN1C(=O)N(C)C2(CCN(CC(CC3OCCO3)c3ccc(F)cc3)CC2)C1=O` (stereo not given), the GI50 is greater than 100 µM in the assay on HCT-15; > 100 µM (inactive) with U-251; > 100 µM (inactive) in the assay on SN12C; > 100 µM (inactive) in the assay on NCI-H226; > 100 µM (inactive) in the assay on A498; > 100 µM (inactive) with HOP-92. Also, the GI50 in the assay on M14, with IGROV-1, with TK-10, in the assay with CCRF-CEM, with HOP-62 and in the assay with HT-29 was > 100 µM (inactive) throughout. Further, the GI50 in the assay on SF-295, in the assay with RPMI-8226, with SK-MEL-5, in the assay with UO-31, in the assay on COLO 205 and in the assay with OVCAR-5 was > 100 µM (inactive) in each case. In the assay with RXF 393, the GI50 is > 100 µM (inactive).
Take `CC(C)(C)C(=O)N1C(C(=O)O)Cc2ccccc2[C@@H]1Cc1ccccc1` (stereo not given in full): the GI50 in the assay with HCT-15 was greater than 100 µM; in the assay with U-251 it was > 100 µM (inactive); in the assay with SN12C, > 100 µM (inactive); in the assay on NCI-H226, 45.6 µM (inactive); with A498, > 100 µM (inactive); in the assay with HOP-92, > 100 µM (inactive). Besides, the GI50 with M14, with IGROV-1, in the assay with TK-10, in the assay on CCRF-CEM, in the assay on NCI-H460 and with HOP-62 was > 100 µM (inactive) each time. In addition, the GI50 in the assay on HT-29, in the assay with SF-295, in the assay on RPMI-8226, in the assay with SK-MEL-5, with COLO 205 and in the assay on OVCAR-5 was > 100 µM (inactive) each time. Besides, the GI50 in the assay on RXF 393 was > 100 µM (inactive).
For the compound `CC(=O)c1ccc(NC(=O)/C(CC(=O)/C=C/c2ccccc2)=N/NC(N)=S)cc1`, the GI50 was 60.5 µM with HCT-15; > 100 µM (inactive) with U-251; > 100 µM (inactive) in the assay on SN12C; > 100 µM (inactive) in the assay on NCI-H226; > 100 µM (inactive) in the assay with A498; > 100 µM (inactive) in the assay on HOP-92. For the same compound, the GI50 with M14 was > 100 µM (inactive); with IGROV-1, 53.1 µM (inactive); with TK-10 it was > 100 µM (inactive); in the assay with NCI-H460, 68.4 µM (inactive); in the assay with HOP-62, > 100 µM (inactive); with HT-29, 41.5 µM (inactive). Besides, the GI50 was > 100 µM (inactive) in the assay on SF-295; 69.3 µM (inactive) in the assay on RPMI-8226; 43.7 µM (inactive) with SK-MEL-5; 41.1 µM (inactive) with UO-31; > 100 µM (inactive) in the assay on OVCAR-5; > 100 µM (inactive) in the assay with RXF 393.
Take `CC(Cc1ccccc1)NC1=NCCO1` (stereo not given): the GI50 is 96.4 µM with HCT-15; 25.1 µM (inactive) with U-251; 21.8 µM (inactive) in the assay on SN12C; > 100 µM (inactive) with NCI-H226; 29.8 µM (inactive) in the assay on A498; 26.9 µM (inactive) in the assay with HOP-92. In addition, the GI50 with IGROV-1 is 36 µM (inactive); with NCI-H460, 17.9 µM (inactive); in the assay with HOP-62 it was 84.1 µM (inactive); with HT-29, 20.1 µM (inactive); in the assay on SF-295, > 100 µM (inactive); in the assay on RPMI-8226, 37.8 µM (inactive). Further, the GI50 was 32.3 µM (inactive) in the assay with SK-MEL-5; 23.6 µM (inactive) in the assay with UO-31; 17.5 µM (inactive) with COLO 205; > 100 µM (inactive) with OVCAR-5; 52.5 µM (inactive) in the assay on RXF 393.
